Patent publication US12064426B2, “Selective inhibitors of ROCK1 and ROCK2 protein kinases and uses thereof” (GENOSCO Inc., priority 2021, dated 2024)

Tests used:
[1] = molecular target: T1, Recombinant ROCK1 (amino acids 1-477) (Homo sapiens, UniProt Q13464); assay: ROCK inhibition assay, LANCE Ultra TR-FRET kinase assay (ROCK1); format: biochemical; conditions: 1 μM ATP, 50 nM ULight-CREBtide substrate
T1 construct: Recombinant ROCK1 (amino acids 1-477); by word order, ROCK1 from Carna Biosciences
Method: (§1) Kinase IC50 was determined through an in vitro assay based on LANCE Ultra TR-FRET (Time-Resolved Fluorescence Resonance Energy Transfer) homogeneous technologies method (Perkin Elmer). Recombinant ROCK1 (amino acids 1-477) and ROCK2 (amino acids 5-554) proteins were purchased from Carna Biosciences and SignalChem. Compound activities were measured by Envision and IC50s were calculated. The assays were performed in white LUMITRAC™ 200 96 well half-area microplates from Greiner Bio-One. The kinase reaction buffer consisted of 50 mM HEPES pH 7.5, 1 mM EGTA, 10 mM MgCl2, 2 mM DTT and 0.01% Tween-20. Kinases were incubated with 50 nM (ULight-CREBtide) substrate in the presence of 1 (ROCK1) or 4 (ROCK2) μM ATP. The kinase reaction was carried out for 1 hour before addition of a stopping buffer to a final of 10 mM EDTA and 0.6 nM of LANCE Ultra Europium anti-phospho-CREB (Ser133) antibody (PerkinElmer TRF0200) in LANCE detection buffer. All assay incubations were performed at room temperature, and the microplates were sealed with polyester film during that time. The reaction was incubated for 1 hour, and the signal was read in Envision in TR-FRET mode (excitation at 320 nm and emission at 615/665 nm).
(§2) As used herein, a way to describe potency of inhibitory activity (nM) is a value of inhibitory activity at 50% (IC50).

[2] = molecular target: T2, Recombinant ROCK2 (amino acids 5-554) (Homo sapiens, UniProt O75116); assay: ROCK inhibition assay, LANCE Ultra TR-FRET kinase assay (ROCK2); format: biochemical; conditions: 4 μM ATP, 50 nM ULight-CREBtide substrate
T2 construct: ROCK2 (amino acids 5-554); by word order, ROCK2 from SignalChem
Method: as §1, §2

T1 sequence (Q13464 1-477): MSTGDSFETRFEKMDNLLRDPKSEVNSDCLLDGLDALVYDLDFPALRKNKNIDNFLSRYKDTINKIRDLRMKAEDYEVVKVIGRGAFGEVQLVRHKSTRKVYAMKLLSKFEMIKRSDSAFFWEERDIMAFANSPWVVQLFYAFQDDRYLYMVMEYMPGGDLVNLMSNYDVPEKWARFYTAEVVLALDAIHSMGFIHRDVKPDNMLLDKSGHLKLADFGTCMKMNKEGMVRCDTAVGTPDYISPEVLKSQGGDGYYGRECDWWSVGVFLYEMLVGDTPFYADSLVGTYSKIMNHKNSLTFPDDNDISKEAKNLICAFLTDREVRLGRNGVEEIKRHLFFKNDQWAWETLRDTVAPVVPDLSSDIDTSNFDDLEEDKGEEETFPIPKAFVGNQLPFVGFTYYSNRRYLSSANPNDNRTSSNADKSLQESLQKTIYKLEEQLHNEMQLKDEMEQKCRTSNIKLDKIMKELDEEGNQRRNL
T2 sequence (O75116 5-554): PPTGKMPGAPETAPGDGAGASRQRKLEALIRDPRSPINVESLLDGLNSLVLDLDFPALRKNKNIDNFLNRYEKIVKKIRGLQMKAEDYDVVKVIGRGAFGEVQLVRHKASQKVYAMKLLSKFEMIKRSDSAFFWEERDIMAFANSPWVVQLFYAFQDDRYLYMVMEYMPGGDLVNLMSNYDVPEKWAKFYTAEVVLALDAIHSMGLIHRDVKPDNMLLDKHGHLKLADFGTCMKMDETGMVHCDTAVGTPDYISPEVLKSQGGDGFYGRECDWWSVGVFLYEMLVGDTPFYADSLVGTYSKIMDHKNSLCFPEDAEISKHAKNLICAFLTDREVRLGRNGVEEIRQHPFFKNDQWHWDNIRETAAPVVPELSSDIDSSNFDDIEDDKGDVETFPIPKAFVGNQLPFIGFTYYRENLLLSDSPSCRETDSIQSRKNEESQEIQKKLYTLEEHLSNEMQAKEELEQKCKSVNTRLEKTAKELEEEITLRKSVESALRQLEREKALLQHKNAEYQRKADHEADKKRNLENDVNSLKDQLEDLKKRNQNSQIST

| IC50 [1] [nM] | IC50 [2] [nM] | Compound |
| --- | --- | --- |
| < 10 | < 10 | CN1CCC(CNC(=O)c2cc(F)cc(Cn3ccc4cc(-c5c[nH]nc5C(F)(F)F)ncc4c3=O)c2)CC1 [Compound 257] |
| 101 to 500 | 10 to 100 | Cc1nocc1-c1ccc2c(=O)n(Cc3cccc(C(=O)NCC4CCN(C(C)C)CC4)c3)ccc2c1 [Compound 81] |
| < 10 | < 10 | CC(C)NC(=O)c1cc(F)cc(Cn2ccc3cc(-c4c[nH]nc4Br)ncc3c2=O)c1 [Compound 272] |
| > 501 | 100 to 500 | Cc1n[nH]cc1-c1ccc2c(=O)n(Cc3cccc(C(=O)Nc4cccc(S(N)(=O)=O)c4)c3)ccc2c1 [Compound 34] |
| > 501 | > 500 | CNC(=O)c1cc(F)cc(Cn2ccc3cc(-c4ccoc4C)ncc3c2=O)c1 [Compound 247] |
| < 10 | < 10 | O=C(NCC1CCNCC1)c1cccc(Cn2cnc3cc(-c4cn[nH]c4C(F)(F)F)ccc3c2=O)c1 [Compound 381] |
| 11 to 100 | < 10 | O=C(N[C@H]1CC[C@H](O)CC1)c1cc(F)cc(Cn2ccc3cc(-c4c[nH]nc4Cl)ncc3c2=O)c1 [Compound 263] |
| > 501 | 100 to 500 | CNC(=O)c1cncc(Cn2cnc3cc(-c4cn[nH]c4Cl)ccc3c2=O)c1 [Compound 403] |
| > 501 | 100 to 500 | CC(=O)Nc1cc(F)cc(Cn2ccc3cc(-c4ccoc4C)ccc3c2=O)c1 [Compound 333] |
| 11 to 100 | < 10 | O=C(NCC1CCOCC1)c1cccc(Cn2ccc3cc(-c4c[nH]nc4C(F)F)ccc3c2=O)c1 [Compound 55] |
| < 10 | < 10 | CN1CCC(CNC(=O)c2cccc(Cn3cnc4cc(-c5cn[nH]c5Cl)ccc4c3=O)c2)CC1 [Compound 410] |
| > 501 | 100 to 500 | O=C(Nc1ccccc1)c1cccc(Cn2ccc3cc(-c4cn[nH]c4)ccc3c2=O)c1 [Compound 29] |
| 11 to 100 | < 10 | CNC(=O)c1cc(F)cc(C(C)n2ccc3cc(-c4cn[nH]c4Cl)ccc3c2=O)c1 (stereo not drawn) [Compound 294] |
| 101 to 500 | 10 to 100 | CNC(=O)c1cccc(Cn2ccc3cc(-c4conc4C)ncc3c2=O)c1 [Compound 241] |
| 11 to 100 | < 10 | O=C(NCC1COC1)c1cc(F)cc(Cn2ccc3cc(-c4c[nH]nc4C(F)F)ccc3c2=O)c1 [Compound 59] |
| 11 to 100 | < 10 | CNC(=O)c1cc(F)cc(Cn2ccc3cc(-c4cn[nH]c4C(F)(F)F)ncc3c2=O)c1 [Compound 246] |
| > 501 | 100 to 500 | NCC(c1cccc(C(N)=O)c1)n1cnc2cc(-c3cn[nH]c3C(F)(F)F)ccc2c1=O (stereo not drawn) [Compound 507] |
| > 501 | 100 to 500 | Nc1cc(-c2ccc3c(=O)n(Cc4cc(F)cc(C(=O)NC5COC5)c4)ccc3c2)ccn1 [Compound 202] |

The next lines start with the molecule.

| Compound | IC50 [1] [nM] | IC50 [2] [nM] |
| --- | --- | --- |
| CN1CCC(NC(=O)c2cc(F)cc(Cn3ccc4cc(-c5c[nH]nc5C(F)(F)F)ccc4c3=O)c2)CC1 [Compound 132] | < 10 | < 10 |
| Cn1nccc1-c1ccc2c(=O)n(Cc3cccc(C(=O)NCC4COC4)c3)cnc2c1 [Compound 431] | 11 to 100 | 10 to 100 |
| Cn1nccc1-c1ccc2c(=O)n(Cc3cccc(C(=O)NCC4CC(O)C4)c3)ccc2c1 (stereo not drawn) [Compound 167] | 11 to 100 | < 10 |
| Cc1nocc1-c1ccc2c(=O)n(Cc3cc(F)cc(C(=O)Nc4nc5c(s4)CCNC5)c3)ccc2c1 [Compound 157] | 11 to 100 | < 10 |
| Cn1nccc1-c1ccc2c(=O)n(Cc3cccc(C(=O)NCC4CCNCC4)c3)ccc2c1 [Compound 169] | < 10 | < 10 |
| CC(O)c1cn(Cc2cccc(C(=O)NC3COC3)c2)c(=O)c2ccc(-c3c[nH]nc3C(F)(F)F)cc12 (stereo not drawn) [Compound 534] | 11 to 100 | < 10 |
| Nc1cc(-c2ccc3c(=O)n(Cc4cccc(C(=O)Nc5ccc6c(c5)CNCC6)c4)ccc3c2)ccn1 [Compound 187] | 11 to 100 | < 10 |
| COc1cccc([C@@H](CO)N2CNc3cc(-c4cn[nH]c4C(F)(F)F)ccc3C2=O)c1 [Compound 528] | > 501 | 100 to 500 |
| O=C(NC1CCOCC1)c1cc(F)cc(Cn2ccc3cc(-c4c[nH]nc4C(F)(F)F)ccc3c2=O)c1 [Compound 130] | 11 to 100 | 10 to 100 |
| Cc1nocc1-c1ccc2c(=O)n(Cc3cccc(C(=O)NCC4CCN(C)CC4)c3)cnc2c1 [Compound 417] | < 10 | < 10 |
| CNC(=O)c1cccc(C(C)n2cc(CCO)c3cc(-c4conc4C)ccc3c2=O)c1 (stereo not drawn) [Compound 553] | 101 to 500 | 10 to 100 |
| CC(=O)Nc1cccc(Cn2ccc3cc(-c4cn[nH]c4)ccc3c2=O)c1 [Compound 352] | 101 to 500 | 10 to 100 |
| CNC(=O)c1cccc(Cn2cc(C(C)O)c3cc(-c4c[nH]nc4Cl)ccc3c2=O)c1 (stereo not drawn) [Compound 541] | 11 to 100 | < 10 |
| O=C(N[C@H]1CC[C@@H](O)CC1)c1cc(F)cc(Cn2ccc3cc(-c4c[nH]nc4C(F)F)ncc3c2=O)c1 [Compound 275] | 11 to 100 | < 10 |
| CNC(=O)c1cccc(C(C)n2cc(CCO)c3cc(-c4cn[nH]c4Cl)ccc3c2=O)c1 (stereo not drawn) [Compound 551] | 11 to 100 | < 10 |
| COc1cccc(Cn2cnc3cc(-c4c[nH]nc4C)ccc3c2=O)c1 [Compound 355] | 11 to 100 | 10 to 100 |
| CN1CCC(CNC(=O)c2cc(F)cc(Cn3ccc4cc(N5CCOCC5)ccc4c3=O)c2)CC1 [Compound 222] | 101 to 500 | 10 to 100 |
| O=C(NCCN1CCOCC1)c1cc(F)cc(Cn2ccc3cc(N4CCOCC4)ccc3c2=O)c1 [Compound 229] | 11 to 100 | 10 to 100 |
| Cn1nccc1-c1ccc2c(=O)n(Cc3cccc(C(=O)NC4CCN(C5COC5)CC4)c3)ccc2c1 [Compound 109] | 101 to 500 | 10 to 100 |

| Compound | IC50 [1] [nM] | IC50 [2] [nM] |
| --- | --- | --- |
| Cc1nocc1-c1ccc2c(=O)n(Cc3cc(F)cc(C(=O)N[C@H]4CC[C@H](O)CC4)c3)ccc2c1 [Compound 139] | 101 to 500 | 100 to 500 |
| C[C@H](c1cccc(C(=O)NCC2COC2)c1)n1cnc2cc(-c3ccnn3C)ccc2c1=O [Compound 479] | 11 to 100 | < 10 |
| CC(C)N1CCC(NC(=O)c2cccc(Cn3ccc4cc(-c5ccnn5C)ccc4c3=O)c2)CC1 [Compound 118] | 101 to 500 | 10 to 100 |
| CNC(=O)c1cccc(C(C)n2cc(CCN(C)C)c3cc(-c4cn[nH]c4C(F)(F)F)ccc3c2=O)c1 (stereo not drawn) [Compound 563] | 11 to 100 | < 10 |
| CNC(=O)c1cccc(Cn2cc(CCO)c3cc(-c4ccnc(N)c4)ccc3c2=O)c1 [Compound 558] | < 10 | 10 to 100 |
| Cc1nocc1-c1ccc2c(=O)n(Cc3cccc(C(=O)NCC4CCN(CC(F)(F)F)CC4)c3)ccc2c1 [Compound 83] | 101 to 500 | 10 to 100 |
| [2H]C([2H])([2H])NC(=O)c1cccc(Cn2cnc3cc(-c4ccnn4C)ccc3c2=O)c1 [Compound 425] | 11 to 100 | < 10 |
| CN1CCc2sc(NC(=O)c3cccc(Cn4ccc5cc(-c6ccnn6C)ccc5c4=O)c3)nc2C1 [Compound 121] | 11 to 100 | < 10 |
| Cc1nocc1-c1ccc2c(=O)n([C@H](C)c3cccc(C(=O)NCC4CCNCC4)c3)cnc2c1 [Compound 473] | < 10 | < 10 |
| Cc1n[nH]cc1-c1ccc2c(=O)n(Cc3cccc(O)c3)ccc2c1 [Compound 5] | 101 to 500 | 10 to 100 |
| CNC(=O)c1cccc(Cn2ccc3cc(-c4cc[nH]c4)ccc3c2=O)c1 [Compound 305] | 101 to 500 | 100 to 500 |
| O=C(N[C@H]1CC[C@@H](O)CC1)c1cccc(Cn2cnc3cc(-c4cn[nH]c4Cl)ccc3c2=O)c1 [Compound 407] | 11 to 100 | < 10 |
| Cn1nccc1-c1ccc2c(=O)n(Cc3cccc(C(=O)Nc4nc5c(s4)CCNC5)c3)ccc2c1 [Compound 122] | < 10 | < 10 |
| Cc1nocc1-c1ccc2c(=O)n(Cc3cccc(C(=O)Nc4ccc5c(c4)CN(C)CC5)c3)ccc2c1 [Compound 101] | < 10 | < 10 |
| CNC(=O)c1cc(F)cc(Cn2cc(Cl)c3cc(-c4conc4C)ccc3c2=O)c1 [Compound 318] | 11 to 100 | < 10 |
| CN1CCc2cc(NC(=O)c3cccc(Cn4ccc5cc(-c6ccnn6C)ccc5c4=O)c3)ccc2C1 [Compound 124] | < 10 | < 10 |
| COc1cccc(Cn2cnc3cc(-c4cn[nH]c4)ccc3c2=O)c1 [Compound 354, 3-(3-methoxybenzyl)-7-(1H-pyrazol-4-yl)quinazolin-4(3H)-one] | 11 to 100 | 10 to 100 |
| CNC(=O)c1cccc(Cn2ccc3cc(-c4cnoc4C)ccc3c2=O)c1 [Compound 301] | > 501 | > 500 |
| C[C@H](c1cccc(C(=O)Nc2ccon2)c1)n1cnc2cc(-c3cn[nH]c3C(F)(F)F)ccc2c1=O [Compound 448] | 101 to 500 | – |
